Measured values: publication PMC12305494, “Discovery of PXR Antagonist MI891 and PXR Degrader MI1013 and Their Roles in Hepatic Gene Regulation” (Journal of Medicinal Chemistry, 2025)
Values joined by “and” are separate entries in the source; they are usually repeats but may differ in a detail not shown here. Equal entries are not always repeated.

Assays:
GSPT1 = molecular target: T1, GSPT1 (Homo sapiens, UniProt P15170); test: Western blot of GSPT1 in HepaRG cells; type: cell-based; details: 24 h
T1 construct: GSPT1 protein expression in HepaRG cells treated with different concentrations of MI1013 and MI1155 for 24 h; endogenous in cells; host or cells: HepaRG
T1 sequence (Q96SW2 whole entry partner): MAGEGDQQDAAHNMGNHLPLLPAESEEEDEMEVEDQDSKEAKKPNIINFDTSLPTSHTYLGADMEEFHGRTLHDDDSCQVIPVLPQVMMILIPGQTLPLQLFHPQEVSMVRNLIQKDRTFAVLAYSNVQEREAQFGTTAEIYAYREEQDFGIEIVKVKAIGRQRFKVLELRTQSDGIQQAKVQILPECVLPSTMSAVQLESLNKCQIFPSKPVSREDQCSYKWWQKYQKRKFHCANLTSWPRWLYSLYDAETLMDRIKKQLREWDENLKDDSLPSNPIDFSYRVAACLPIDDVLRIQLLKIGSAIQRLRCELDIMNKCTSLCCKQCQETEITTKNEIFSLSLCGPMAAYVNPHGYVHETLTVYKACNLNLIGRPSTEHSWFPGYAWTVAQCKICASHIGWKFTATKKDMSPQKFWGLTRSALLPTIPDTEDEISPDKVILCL
T1 sequence (P15170 whole entry): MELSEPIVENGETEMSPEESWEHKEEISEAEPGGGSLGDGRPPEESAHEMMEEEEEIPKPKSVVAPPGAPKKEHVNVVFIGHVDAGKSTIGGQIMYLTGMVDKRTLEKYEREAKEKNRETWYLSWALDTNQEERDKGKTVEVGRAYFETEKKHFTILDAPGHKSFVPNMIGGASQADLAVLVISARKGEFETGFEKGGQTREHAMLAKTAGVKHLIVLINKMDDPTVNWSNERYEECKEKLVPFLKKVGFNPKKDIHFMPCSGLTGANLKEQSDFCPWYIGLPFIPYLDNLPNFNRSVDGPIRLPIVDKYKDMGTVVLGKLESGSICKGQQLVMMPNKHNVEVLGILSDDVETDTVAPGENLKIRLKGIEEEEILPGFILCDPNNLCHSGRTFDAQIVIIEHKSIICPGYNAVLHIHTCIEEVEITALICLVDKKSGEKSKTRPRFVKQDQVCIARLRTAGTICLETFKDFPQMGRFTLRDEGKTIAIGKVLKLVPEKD
Protocol: The harvested HepaRG cells were lysed in RIPA lysis buffer (Cat. no 89900, Thermo Scientific) containing Halt protease inhibitor cocktail inhibitors (Thermo Scientific). Protein concentration was measured using the Pierce BCA Protein Assay Kit (Cat. no. 23225, Thermo Scientific), samples were diluted in 4 × Laemmli sample buffer (Cat. no. 1610747, BioRad) supplemented with mercaptoethanol and heated at 95 °C for 5 min. Equal amounts of protein were loaded in 4–20% Mini-PROTEAN TGX Stain-Free Protein Gels (12 well. cat. no. 4561095 or 15 well, cat. no. 4568096, Bio-Rad), electrophorised, and transferred onto Trans-Blot Turbo Midi-size PVDF Membrane (cat. no. 1704273, Bio-Rad), and blocked with EveryBlot Blocking buffer for 10 min (cat. no. 12010020, Bio-Rad). […] Chemiluminescence signals were detected using SuperSignal West Femto Maximum Sensitivity Substrate (cat. no. 34096, Thermo Scientific) and visualized by the ChemiDoc MP Imaging system (Universal Hood III, #731BR02821, Bio-Rad), and the bands were quantified using β-actin (1:2000, recombinant rabbit conjugated monoclonal antibody (JF53-10), cat. no. MA5-32540, Invitrogen) as loading control with ImageJ (version 1.54g) software.

PXR = molecular target: T2, PXR (Homo sapiens, UniProt O75469); test: cell-based
T2 sequence (O75469 1-434): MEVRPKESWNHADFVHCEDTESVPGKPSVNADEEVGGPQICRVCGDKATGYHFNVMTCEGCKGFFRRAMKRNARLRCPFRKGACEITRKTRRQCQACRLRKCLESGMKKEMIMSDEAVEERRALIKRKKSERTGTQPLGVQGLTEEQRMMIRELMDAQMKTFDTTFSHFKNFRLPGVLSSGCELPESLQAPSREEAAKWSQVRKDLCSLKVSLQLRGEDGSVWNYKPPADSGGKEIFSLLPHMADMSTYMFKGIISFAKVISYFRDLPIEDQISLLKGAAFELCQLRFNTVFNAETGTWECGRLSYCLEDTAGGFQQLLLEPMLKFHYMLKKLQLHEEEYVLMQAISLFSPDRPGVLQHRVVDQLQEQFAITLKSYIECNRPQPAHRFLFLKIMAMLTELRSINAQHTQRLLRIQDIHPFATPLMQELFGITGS

[1] = Plasma stability, human plasma; type: in vitro ADME; details: up to 120 min, read-out: Plasma stability, t1/2 (min), human
LXRβ = molecular target: T3, LXRβ (Homo sapiens, UniProt P55055); test: LXRβ luciferase reporter assay, agonistic and antagonistic setups; type: cell-based; details: prototype ligand GW3965
T3 construct: expressed in transfected cells
T3 sequence (P55055 222-460 limits assumed): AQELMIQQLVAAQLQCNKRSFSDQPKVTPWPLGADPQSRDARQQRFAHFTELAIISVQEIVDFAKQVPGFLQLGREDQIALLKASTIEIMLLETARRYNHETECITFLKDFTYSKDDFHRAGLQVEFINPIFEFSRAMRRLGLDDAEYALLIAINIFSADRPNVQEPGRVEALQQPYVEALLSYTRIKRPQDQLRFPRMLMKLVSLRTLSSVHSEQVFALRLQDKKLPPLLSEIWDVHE
Protocol: (§1) For the farnesoid X receptor (FXR) luciferase gene reporter assay, the full-length expression vector was paired with pFXRE-luc luciferase construct. The p1A1-luc construct was used in the aryl hydrocarbon receptor (AhR) assays with pRL-TK for normalization. Gal4-LXR-α/β, and Gal4-PPAR-γ constructs were used with the pGAL4 UAS-luc construct. For the VDR assay, expression vector pSG5-hVDR together with pVDRE-luc constructs was used. Firefly and Renilla luciferase activities were analyzed using a Dual reporter assay (Promega). For the nuclear receptor assays, prototype ligands were used at the following concentrations: Calcitriol for VDR (100 nM), GW3965 for LXRα and LXRβ (10 μM), 6-OCA for FXR (1 μM), fenofibrate for PPARα (10 μM), estradiol for ERα and β (10 μM), rosiglitazone for PPARγ (10 μM), 3-MC for AhR (5 μM), and TCPOBOP for mCAR (10 μM). Detailed descriptions and protocols are detailed in our recent publication. ,

ERα/β = ERα/β agonist reporter assay; type: cell-based; details: 10 µM MI891
Protocol: as §1, with “publication. , […]” for “publication. ,”
hydrophobic interactions. (F) Superimposed diagram of PXR bound with agonist (SJPYT-328) and antagonists (MI891 and SJPYT-331) to differentiate the agonist and antagonist interactions with helix 12 (H12). The interaction of the agonist with PXR residue (L428) is circled. (G) Extended nuclear receptor selectivity profile. […]

Compound	GSPT1 degradation (GSPT1)	IC50 (PXR; IC50, antagonistic activity for rifampicin (1 μM)-activated PXR, rifampicin 1 μM, HepG2) [µM]	IC50 (PXR; IC50, antagonistic mode, MI891 + Rif-5 μM, rifampicin 5 μM, HepG2) [µM]	IC50 (PXR; PXR antagonism: PXR inhibition (IC50, μM), antagonist mode with 10 μM rifampicin, mean ± SD, n = 3)	half-life [1] [min]	agonistic or antagonistic activity on LXRβ (LXRβ)	agonistic effect on ERα/β (ERα/β)
N-(4-((1-(2,5-dimethoxyphenyl)-5-methyl-1H-1,2,3-triazol-4-yl)sulfonyl)phenyl)-3-(2-(2-(2-(4-(((2-(2,6-dioxopiperidin-3-yl)-1,3-dioxoisoindolin-4-yl)amino)methyl)-1H-1,2,3-triazol-1-yl)ethoxy)ethoxy)ethoxy)propenamide [Compound 36]	does not degrade						
NC(=O)c1cc(Cn2cc(-c3c(-c4ccc(Cl)cc4)nc4c(F)cc(F)cn34)nn2)ccc1Cl [Compound 11, 2-Chloro-5-((4-(2-(4-chlorophenyl)-6,8-difluoroimidazo[1,2-a]pyridin-3-yl)-1H-1,2,3-triazol-1-yl)methyl)-benzamide]		0.378	3.5	3.8 µM and 3.76 µM	> 120	no significant agonistic or antagonistic activities	no agonistic effects
